Measurements as given in PMC7503713, “GANT61 Reduces Hedgehog Molecule (GLI1) Expression and Promotes Apoptosis in Metastatic Oral Squamous Cell Carcinoma Cells” (International Journal of Molecular Sciences, 2020).

How the values were obtained:
[1] = tested on: HepG2; test: alamarBlue cytotoxicity assay, HepG2; type: cell-based, human; conditions: 72 h of incubation
Protocol: (§1) To assess the cytotoxicity of the GLI inhibitor GANT61 (Sigma-Aldrich, St. Louis, MO, USA) in tumor and non-tumor cell lines, an alamarBlue assay (Sigma-Aldrich Chemical Co, St. Louis, MO, USA) was performed after 72 h of exposure to the inhibitor, as described by Ahmed et al., 1994 [46]. Cells were distributed on 96-well plates at a density of 7 × 10^4 cells/mL for adhered cells, and 3 × 10^5 cells/mL for cells in suspension. All tested compounds were dissolved in DMSO, added to wells containing 100 µL of cells in complete medium, and then incubated for 72 h. Eight concentrations of GANT61 (0.19 to 50 µg/mL), Doxorubicin (Laboratory IMA S.A.I.C., Buenos Aires, Argentina), and 5-Fluorouracil (5-FU, Sigma-Aldrich, St. Louis, MO, USA), both used as positive controls at concentrations ranging from 0.03 to 5 µg/mL, were added to respective wells. Cells treated with the vehicle (0.5% DMSO) used to dilute the tested compounds were used as negative controls. Before the end of the incubation period (4 h for cell lines and 24 h for PBMCs), 20 µL of alamarBlue stock solution (resazurin, Sigma-Aldrich, St. Louis, MO, USA) was added to each well. Absorbance was measured at 570 nm (reduced) and 595 nm (oxidized) wavelengths, using a Spectramax 190 plate reader (Molecular Devices; Sunnyvale, CA, USA).
(§2) Statistical analyses were performed, using GraphPad Prism v. 6.03 (GraphPad Software, Inc., San Diego, USA). Data were analyzed according to distribution along the normal Gaussian curve. IC50 values were obtained through non-linear regression, using results from three independent experiments carried out in duplicate. Differences between groups resulting from in vitro assays were evaluated by ANOVA (analysis of variance) testing, followed by the Student–Newman–Keuls test. This study considered a level of significance, corresponding to alpha (α) or “p” value, when results were less than or equal to 5%.

[2] = tested on: K562; test: alamarBlue cytotoxicity assay, K562; type: cell-based, human; conditions: 72 h of incubation
Protocol: as §1, §2

[3] = tested on: CAF 1; test: alamarBlue cytotoxicity assay, cancer-associated fibroblasts CAF 1; type: cell-based, human; conditions: CAF 1, alamarBlue, 72 h of incubation
Protocol: (§3) Two cancer-associated fibroblast populations (CAF1 and CAF2) were obtained as described by Sobral et al. (2011), from fragments of squamous cell carcinoma of the tongue that were removed from patients seen at the UNICAMP School of Dentistry in Piracicaba, São Paulo, Brazil.
(§4) Specimens were washed with PBS, fragmented, and placed in 25 cm^2 cell culture flasks containing 1 mL of DMEM medium supplemented with 10% FBS and an antibiotic, and then maintained in an incubator, at 37 °C, under 5% CO2. Cell growth was monitored daily, and the medium was replaced every 2–3 days. […] Type I collagen production as assessed by ELISA was also used as a marker of myofibroblast activity. Both CAF1 and CAF2 primary populations were maintained for a maximum of 12 passages, with CAF phenotype maintenance evaluated through immunocytochemical staining for the α-SMA antibody after each two passages. […]
(§5) To assess the cytotoxicity of the GLI inhibitor GANT61 (Sigma-Aldrich, St. Louis, MO, USA) in tumor and non-tumor cell lines, an alamarBlue assay (Sigma-Aldrich Chemical Co, St. Louis, MO, USA) was performed after 72 h of exposure to the inhibitor, as described by Ahmed et al., 1994 [46]. […] Absorbance was measured at 570 nm (reduced) and 595 nm (oxidized) wavelengths, using a Spectramax 190 plate reader (Molecular Devices; Sunnyvale, CA, USA). […]

[4] = tested on: CAF 2; test: alamarBlue cytotoxicity assay, cancer-associated fibroblasts CAF 2; type: cell-based, human; conditions: CAF 2, alamarBlue, 72 h of incubation
Protocol: as §3, §4, §5

[5] = tested on: NOF; test: alamarBlue cytotoxicity assay, normal oral fibroblasts NOF; type: cell-based; conditions: Homo sapiens, Fibroblast, 72 h of incubation
Protocol: For comparative analysis, primary cultures of normal oral fibroblasts (NOF) were isolated from fragments of healthy patient gingiva, using the same technique previously described for CAFs above, and then maintained in culture for up to 15 passages.
To assess the cytotoxicity of the GLI inhibitor GANT61 (Sigma-Aldrich, St. Louis, MO, USA) in tumor and non-tumor cell lines, an alamarBlue assay (Sigma-Aldrich Chemical Co, St. Louis, MO, USA) was performed after 72 h of exposure to the inhibitor, as described by Ahmed et al., 1994 [46]. Cells were distributed on 96-well plates at a density of 7 × 10^4 cells/mL for adhered cells, and 3 × 10^5 cells/mL for cells in suspension. All tested compounds were dissolved in DMSO, added to wells containing 100 µL of cells in complete medium, and then incubated for 72 h. […] Absorbance was measured at 570 nm (reduced) and 595 nm (oxidized) wavelengths, using a Spectramax 190 plate reader (Molecular Devices; Sunnyvale, CA, USA).
Statistical analyses were performed, using GraphPad Prism v. […] Data were analyzed according to distribution along the normal Gaussian curve. […] Differences between groups resulting from in vitro assays were evaluated by ANOVA (analysis of variance) testing, followed by the Student–Newman–Keuls test. […]

[6] = tested on: HSC3 cells; test: Phosphatidylserine externalization by flow cytometry (annexin V-FITC/PI); type: cell-based, human
Protocol: To study the effects of GANT61 on HSC3 cell viability, cycle, and death patterns, 4 mL of cellular solution (containing 0.7 × 10^5 cells/mL) was placed on 6-well plates and incubated overnight, to allow adhesion. […] For cell cycle analysis, the effects of GANT61 on HSC3 cells were also evaluated after 12 h of treatment. Negative controls were treated with the vehicle (0.2% DMSO) used to dilute the GLI inhibitor, and 5-fluorouracil (5-FU, 17 μM) was used as a positive control. All experiments were carried out in duplicate and repeated no less than three times. Cell viability was determined by the trypan blue exclusion method, in which 90 μL aliquots were collected at several incubation periods, stained with 10 μL trypan blue, and counted in a Neubauer chamber, under optical microscopy, at 20× magnification (Olympus CX41 Olympus, Tokyo, Japan).
Following treatment with GANT61, cells were labeled with annexin V-FITC and PI to determine cell viability (classified as viable, early apoptosis, late apoptosis, and necrosis), according to the manufacturer’s protocol (Becton Dickinson Biosciences, San José, CA, USA). Cells were acquired (10,000 events/sample) and analyzed on a BD LSRFortessa flow cytometer, using BD FACSDiva software version 6.2 (Becton Dickinson Biosciences, San José, CA, USA). The proportion of cells undergoing apoptosis was determined by the percentage of annexin labeling as quantified by the FlowJo program, version 10 (Flowjo LCC, Ashland, OR, USA). Cellular debris was omitted from our analyses.

| Compound | IC50 ([1]; Homo sapiens) | IC50 ([2]; Homo sapiens) | IC50 ([3]; Homo sapiens, Fibroblast) | IC50 ([4]; Homo sapiens, Fibroblast) | IC50 [5] | cell apoptosis ([6]; 5-FU positive control, only after 72 h) | IC50 [1] | IC50 [2] | IC50 [3] | IC50 [4] | cell apoptosis ([6]; 18 µM, 48 and 72 h) | exposure of phosphatidylserine on HSC3 cell surfaces ([6]; 36 µM, all times evaluated, vs DMSO (0.2%)) |
| --- | --- | --- | --- | --- | --- | --- | --- | --- | --- | --- | --- | --- |
| O=c1[nH]cc(F)c(=O)[nH]1 [5-FU, 5-fluorouracil] | 1.3 µM | 18.1 µM | > 192 µM | > 192 µM | 39.6 µM | significantly increased cell apoptosis |  |  |  |  |  |  |
| CN(C)c1ccccc1CN1CCCN(Cc2ccccc2N(C)C)C1c1ccncc1 [GANT61] |  |  |  |  |  |  | > 116 µM | > 116 µM | 3.67 µM | 71.5 µM | significantly increased cell apoptosis | significantly higher exposure of phosphatidylserine |
